Data published in ChEMBL document CHEMBL3400103, “Synthesis and biological evaluation of novel HIV-1 protease inhibitors using tertiary amine as P2-ligands” (Bioorg Med Chem Lett, 2015).

Molecular target: Protease (Human immunodeficiency virus 1, UniProt Q9YQ12)
Experiment: Inhibition of HIV1 protease expressed in Escherichia coli incubated for 20 to 30 mins at room temperature using (Arg-Glu(EDANS)-Ser-Gln-Asn-Tyr-Pro-Ile-Val-Gln-Lys(DABCYL)-Arg) substrate by FRET method

Protease, sequence (Q9YQ12 whole entry): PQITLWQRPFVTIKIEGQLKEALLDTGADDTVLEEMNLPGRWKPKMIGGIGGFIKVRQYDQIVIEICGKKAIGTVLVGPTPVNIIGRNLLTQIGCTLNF

Compound | IC50 [nM]
COc1ccc(S(=O)(=O)N(CC(C)C)C[C@@H](O)[C@H](Cc2ccccc2)NC(=O)CN(CC(=O)N2CCOCC2)c2cccc(O)c2C)cc1 | 1380
Cc1c(O)cccc1N(CC(=O)N[C@@H](Cc1ccccc1)[C@H](O)CN(CC(C)C)S(=O)(=O)c1ccc([N+](=O)[O-])cc1)CC(=O)N1CCOCC1 | 6670
Cc1c(O)cccc1N(CC(=O)N[C@@H](Cc1ccccc1)[C@H](O)CN(CC(C)C)S(=O)(=O)c1ccc([N+](=O)[O-])cc1)CC(=O)N(C)C | 610
COc1ccc(N(CC(=O)N[C@@H](Cc2ccccc2)[C@H](O)CN(CC(C)C)S(=O)(=O)c2ccc([N+](=O)[O-])cc2)CC(=O)N2CCOCC2)cc1 | 1020
Cc1c(O)cccc1N(CC(=O)N[C@@H](Cc1ccccc1)[C@H](O)CN(CC(C)C)S(=O)(=O)c1ccc(N)cc1)CC(=O)N1CCOCC1 | 2730
COc1ccc(N(CC(=O)N[C@@H](Cc2ccccc2)[C@H](O)CN(CC(C)C)S(=O)(=O)c2ccc(N)cc2)CC(=O)N2CCOCC2)cc1 | 1360
Cc1cccc(C)c1N(CC(=O)N[C@@H](Cc1ccccc1)[C@H](O)CN(CC(C)C)S(=O)(=O)c1ccc(N)cc1)CC(=O)N(C)C | 1360
Cc1c(O)cccc1N(CC(=O)N[C@@H](Cc1ccccc1)[C@H](O)CN(CC(C)C)S(=O)(=O)c1ccc(CO)cc1)CC(=O)N1CCOCC1 | 1210
COc1ccc(N(CC(=O)N[C@@H](Cc2ccccc2)[C@H](O)CN(CC(C)C)S(=O)(=O)c2ccc(CO)cc2)CC(=O)N2CCOCC2)cc1 | 890
COc1ccc(S(=O)(=O)N(CC(C)C)C[C@H](O)[C@H](Cc2ccccc2)NC(=O)CN(CC(=O)N2CCOCC2)c2cccc(O)c2C)cc1 | > 20000
COc1ccc(S(=O)(=O)N(CC(C)C)C[C@H](O)[C@H](Cc2ccccc2)NC(=O)CN(CC(=O)N(C)C)c2cccc(O)c2C)cc1 | 5780
COc1ccc(N(CC(=O)N[C@@H](Cc2ccccc2)[C@@H](O)CN(CC(C)C)S(=O)(=O)c2ccc(OC)cc2)CC(=O)N2CCOCC2)cc1 | > 20000
COc1ccc(N(CC(=O)N[C@@H](Cc2ccccc2)[C@@H](O)CN(CC(C)C)S(=O)(=O)c2ccc(OC)cc2)CC(=O)N(C)C)cc1 | > 20000
COc1ccc(S(=O)(=O)N(CC(C)C)C[C@H](O)[C@H](Cc2ccccc2)NC(=O)CN(CC(=O)N2CCOCC2)c2c(C)cccc2C)cc1 | 8650
COc1ccc(S(=O)(=O)N(CC(C)C)C[C@H](O)[C@H](Cc2ccccc2)NC(=O)CN(CC(=O)N(C)C)c2c(C)cccc2C)cc1 | > 20000
Cc1c(O)cccc1N(CC(=O)N[C@@H](Cc1ccccc1)[C@@H](O)CN(CC(C)C)S(=O)(=O)c1ccc([N+](=O)[O-])cc1)CC(=O)N1CCOCC1 | > 20000

Compound | IC50 [nM]
Cc1c(O)cccc1N(CC(=O)N[C@@H](Cc1ccccc1)[C@@H](O)CN(CC(C)C)S(=O)(=O)c1ccc([N+](=O)[O-])cc1)CC(=O)N(C)C | 7410
COc1ccc(N(CC(=O)N[C@@H](Cc2ccccc2)[C@@H](O)CN(CC(C)C)S(=O)(=O)c2ccc([N+](=O)[O-])cc2)CC(=O)N2CCOCC2)cc1 | 19200
COc1ccc(N(CC(=O)N[C@@H](Cc2ccccc2)[C@@H](O)CN(CC(C)C)S(=O)(=O)c2ccc([N+](=O)[O-])cc2)CC(=O)N(C)C)cc1 | > 20000
Cc1cccc(C)c1N(CC(=O)N[C@@H](Cc1ccccc1)[C@@H](O)CN(CC(C)C)S(=O)(=O)c1ccc([N+](=O)[O-])cc1)CC(=O)N1CCOCC1 | 5870
Cc1cccc(C)c1N(CC(=O)N[C@@H](Cc1ccccc1)[C@@H](O)CN(CC(C)C)S(=O)(=O)c1ccc([N+](=O)[O-])cc1)CC(=O)N(C)C | 5880
Cc1c(O)cccc1N(CC(=O)N[C@@H](Cc1ccccc1)[C@@H](O)CN(CC(C)C)S(=O)(=O)c1ccc(N)cc1)CC(=O)N1CCOCC1 | 16100
Cc1c(O)cccc1N(CC(=O)N[C@@H](Cc1ccccc1)[C@@H](O)CN(CC(C)C)S(=O)(=O)c1ccc(N)cc1)CC(=O)N(C)C | 5920
COc1ccc(N(CC(=O)N[C@@H](Cc2ccccc2)[C@@H](O)CN(CC(C)C)S(=O)(=O)c2ccc(N)cc2)CC(=O)N2CCOCC2)cc1 | 6810
COc1ccc(N(CC(=O)N[C@@H](Cc2ccccc2)[C@@H](O)CN(CC(C)C)S(=O)(=O)c2ccc(N)cc2)CC(=O)N(C)C)cc1 | 6960
Cc1cccc(C)c1N(CC(=O)N[C@@H](Cc1ccccc1)[C@@H](O)CN(CC(C)C)S(=O)(=O)c1ccc(N)cc1)CC(=O)N1CCOCC1 | 2590
Cc1c(O)cccc1N(CC(=O)N[C@@H](Cc1ccccc1)[C@@H](O)CN(CC(C)C)S(=O)(=O)c1ccc(CO)cc1)CC(=O)N1CCOCC1 | 6120
Cc1c(O)cccc1N(CC(=O)N[C@@H](Cc1ccccc1)[C@@H](O)CN(CC(C)C)S(=O)(=O)c1ccc(CO)cc1)CC(=O)N(C)C | > 20000
COc1ccc(N(CC(=O)N[C@@H](Cc2ccccc2)[C@@H](O)CN(CC(C)C)S(=O)(=O)c2ccc(CO)cc2)CC(=O)N2CCOCC2)cc1 | > 20000
COc1ccc(N(CC(=O)N[C@@H](Cc2ccccc2)[C@@H](O)CN(CC(C)C)S(=O)(=O)c2ccc(CO)cc2)CC(=O)N(C)C)cc1 | 5340
Cc1cccc(C)c1N(CC(=O)N[C@@H](Cc1ccccc1)[C@@H](O)CN(CC(C)C)S(=O)(=O)c1ccc(CO)cc1)CC(=O)N1CCOCC1 | 8940
Cc1cccc(C)c1N(CC(=O)N[C@@H](Cc1ccccc1)[C@@H](O)CN(CC(C)C)S(=O)(=O)c1ccc(CO)cc1)CC(=O)N(C)C | 17300

Molecules with a lower IC50, results first:

IC50 [nM] | Compound
15 | COc1ccc(S(=O)(=O)N(CC(C)C)C[C@@H](O)[C@H](Cc2ccccc2)NC(=O)CN(CC(=O)N2CCOCC2)c2c(C)cccc2C)cc1
540 | COc1ccc(S(=O)(=O)N(CC(C)C)C[C@@H](O)[C@H](Cc2ccccc2)NC(=O)CN(CC(=O)N(C)C)c2cccc(O)c2C)cc1
290 | COc1ccc(N(CC(=O)N[C@@H](Cc2ccccc2)[C@H](O)CN(CC(C)C)S(=O)(=O)c2ccc(OC)cc2)CC(=O)N2CCOCC2)cc1
220 | COc1ccc(N(CC(=O)N[C@@H](Cc2ccccc2)[C@H](O)CN(CC(C)C)S(=O)(=O)c2ccc(OC)cc2)CC(=O)N(C)C)cc1
180 | COc1ccc(S(=O)(=O)N(CC(C)C)C[C@@H](O)[C@H](Cc2ccccc2)NC(=O)CN(CC(=O)N(C)C)c2c(C)cccc2C)cc1
210 | COc1ccc(N(CC(=O)N[C@@H](Cc2ccccc2)[C@H](O)CN(CC(C)C)S(=O)(=O)c2ccc([N+](=O)[O-])cc2)CC(=O)N(C)C)cc1
73 | Cc1cccc(C)c1N(CC(=O)N[C@@H](Cc1ccccc1)[C@H](O)CN(CC(C)C)S(=O)(=O)c1ccc([N+](=O)[O-])cc1)CC(=O)N1CCOCC1
290 | Cc1cccc(C)c1N(CC(=O)N[C@@H](Cc1ccccc1)[C@H](O)CN(CC(C)C)S(=O)(=O)c1ccc([N+](=O)[O-])cc1)CC(=O)N(C)C
590 | Cc1c(O)cccc1N(CC(=O)N[C@@H](Cc1ccccc1)[C@H](O)CN(CC(C)C)S(=O)(=O)c1ccc(N)cc1)CC(=O)N(C)C
140 | COc1ccc(N(CC(=O)N[C@@H](Cc2ccccc2)[C@H](O)CN(CC(C)C)S(=O)(=O)c2ccc(N)cc2)CC(=O)N(C)C)cc1
64 | Cc1cccc(C)c1N(CC(=O)N[C@@H](Cc1ccccc1)[C@H](O)CN(CC(C)C)S(=O)(=O)c1ccc(N)cc1)CC(=O)N1CCOCC1
150 | Cc1c(O)cccc1N(CC(=O)N[C@@H](Cc1ccccc1)[C@H](O)CN(CC(C)C)S(=O)(=O)c1ccc(CO)cc1)CC(=O)N(C)C
370 | COc1ccc(N(CC(=O)N[C@@H](Cc2ccccc2)[C@H](O)CN(CC(C)C)S(=O)(=O)c2ccc(CO)cc2)CC(=O)N(C)C)cc1
73 | Cc1cccc(C)c1N(CC(=O)N[C@@H](Cc1ccccc1)[C@H](O)CN(CC(C)C)S(=O)(=O)c1ccc(CO)cc1)CC(=O)N1CCOCC1
290 | Cc1cccc(C)c1N(CC(=O)N[C@@H](Cc1ccccc1)[C@H](O)CN(CC(C)C)S(=O)(=O)c1ccc(CO)cc1)CC(=O)N(C)C
490 | Cc1cccc(C)c1N(CC(=O)N[C@@H](Cc1ccccc1)[C@@H](O)CN(CC(C)C)S(=O)(=O)c1ccc(N)cc1)CC(=O)N(C)C
